Reference: ChEMBL document CHEMBL1147301, “Studies on inhibitors of skin-tumor promotion. Inhibitory effects of triterpenes from Cochlospermum tinctorium on Epstein-Barr virus activation” (J Nat Prod, 1989)

Assays:
Raji [1] = assay: Inhibition of EBV-early antigen activation in human Raji cells assessed as early antigen activation at 4 mM; type: cell-based; design: scale not given: the % may be the effect or the level left; details: human gammaherpesvirus 4
Raji [2] = assay: Inhibition of 12-O-tetradecanoylphorbol-13-acetate-induced EBV-early antigen activation in human Raji cells assessed as early antigen activation at 4 mM ratio relative to TPA; type: cell-based; design: scale not given: the % may be the effect or the level left; details: human gammaherpesvirus 4

Compound: CCCC(=O)O
- Activity (Raji [1]): 0.1%
- Activity (Raji [2]): 34.5%
